Source: US6670487B1, “Method for removing impurities from oxidation products” (General Electric Company, priority 2002, dated 2003)

What was measured:
[1] = Solvent extraction of aqueous crude chlorophthalic acid solution: distribution coefficient K and selectivity beta of chlorophthalides; type: physicochemical; set-up: key to K values: K = chlorophthalide mass fraction organic phase / aqueous phase; key to beta values: beta = (phthalide/acid wt fraction, organic) ÷ (same ratio, water)
Text: In one embodiment the efficacy of a solvent extraction may be measured by the distribution coefficient, K, which is the mole fraction of specified solute in the organic solvent phase compared to the mole fraction of specified solute in the aqueous phase. In some particular embodiments an organic solvent is employed such that the value of the distribution coefficient, K, for phthalide in a product mixture comprising at least one phthalic acid is greater than 1. In other particular embodiments an organic solvent is employed such that the value of the distribution coefficient, K, for chlorophthalide in a product mixture comprising at least one chlorophthalic acid is greater than 1. In various particular embodiments an organic solvent is employed such that the value of the distribution coefficient, K, for chlorophthalide is in one embodiment in a range of between about 1.1 and about 5, and in another embodiment in a range of between about 1.1 and about 4. In a particular embodiment the distribution coefficient is measured for 4-chlorophthalide with water and various organic solvents such as toluene and xylene.
Another factor for measuring the efficacy of a solvent extraction is the selectivity factor, β, which compares the ratio of two components of interest in one phase to the ratio of the same two components in the other phase. In a particular embodiment the selectivity factor is measured for 4-chlorophthalide in relation to chlorophthalic acids in both water and organic solvent.
A 35 wt. % solution of crude chlorophthalic acid in water was prepared by adding appropriate amounts of 4- and 3-chlorophthalic anhydride (70/30 isomer ratio) along with a mixture of about 3 wt. % (based on crude chlorophthalic anhydride) of synthetic 4- and 7-chlorophthalide (produced by reduction of 3-chlorophthalic anhydride). […] A number of vials were prepared each containing 5 milliliters (ml.) of an aqueous phase comprising a certain concentration of crude chlorophthalic acid (5 wt. % to 35 wt. %, based on the weight of the entire aqueous phase and, optionally, acetic acid (0 wt. % to 36 wt. %, based on the weight of the entire aqueous phase). Each vial was then treated with 5 ml. of either toluene, o-dichlorobenzene (ODCB), or ortho-xylene. The vials were then shaken vigorously in a mechanical shaker for 50 minutes at a specified temperature (22° C., 42° C., or 60° C.). The phases were allowed to separate over several hours (actual phase separation occurred much quicker than this) and then each phase was sampled using a pipette. No stable emulsions were observed under the conditions which were examined. The organic phase was analyzed directly by GC (using biphenyl internal standard, following silylation of the product mixture), while for the aqueous phase, water was evaporated and solid residue was redissolved in organic solvent before GC analysis. The analytical data were used to calculate an equilibrium constant, K, which represented the ratio of chlorophthalides mass fraction in the organic phase to that in the aqueous phase. The analytical data were also used to calculate a selectivity constant, beta, which represented the quotient of [(wt. fraction of chlorophthalides in xylene)/(wt fraction of chlorophthalic acids in xylene)] divided by the quotient of [(wt fraction of chlorophthalides in water)/(wt fraction of chlorophthalic acids in water)]. The data in Table 1 show results of extractions performed at 22° C. with no acetic acid present.
The Procedure of Example 1 was repeated except that extractions were performed at 22 wt. % initial chlorophthalic acid concentration at 22° C. in the presence of different levels of acetic acid.
The procedure of Example 1 was repeated except that extractions were performed at different wt. % initial chlorophthalic acid concentration at 60° C. with no acetic acid present. […]

[2] = as above; type: physicochemical; set-up: key to K values: K = chlorophthalide mass fraction organic phase / aqueous phase; key to beta values: beta = (phthalide/acid wt fraction, organic) ÷ (same ratio, water); conditions: 22 wt.% chlorophthalic acid, 60° C.
[3] = ODCB/water, 9 wt.% acetic acid in initial aqueous phase, 22 wt.% chlorophthalic acid, 22° C.
[4] = ODCB/water, 10 wt.% acetic acid in initial aqueous phase, 22 wt.% chlorophthalic acid, 60° C.
[5] = ODCB/water, 12 wt.% chlorophthalic acid in aqueous phase, 22° C., no acetic acid
[6] = ODCB/water, 17 wt.% acetic acid in initial aqueous phase, 22 wt.% chlorophthalic acid, 22° C.
[7] = ODCB/water, 19 wt.% acetic acid in initial aqueous phase, 22 wt.% chlorophthalic acid, 60° C.
[8] = ODCB/water, 22 wt.% chlorophthalic acid in aqueous phase, 60° C., no acetic acid
[9] = ODCB/water, 23 wt.% chlorophthalic acid in aqueous phase, 22° C., no acetic acid
[10] = ODCB/water, 26 wt.% acetic acid in initial aqueous phase, 22 wt.% chlorophthalic acid, 22° C.
[11] = ODCB/water, 35 wt.% acetic acid in initial aqueous phase, 22 wt.% chlorophthalic acid, 22° C.
[12] = ODCB/water, 35 wt.% chlorophthalic acid in aqueous phase, 22° C., no acetic acid
[13] = ODCB/water, 35 wt.% chlorophthalic acid in aqueous phase, 60° C., no acetic acid
[14] = toluene/water, 12 wt.% chlorophthalic acid in aqueous phase, 22° C., no acetic acid
[15] = toluene/water, 17 wt.% acetic acid in initial aqueous phase, 22 wt.% chlorophthalic acid, 22° C.
[16] = toluene/water, 22 wt.% chlorophthalic acid in aqueous phase, 60° C., no acetic acid
[17] = toluene/water, 23 wt.% chlorophthalic acid in aqueous phase, 22° C., no acetic acid
[18] = toluene/water, 26 wt.% acetic acid in initial aqueous phase, 22 wt.% chlorophthalic acid, 22° C.
[19] = toluene/water, 35 wt.% chlorophthalic acid in aqueous phase, 22° C., no acetic acid
[20] = toluene/water, 35 wt.% chlorophthalic acid in aqueous phase, 60° C., no acetic acid
[21] = toluene/water, 36 wt.% acetic acid in initial aqueous phase, 22 wt.% chlorophthalic acid, 22° C.
[22] = xylene/water, 12 wt.% chlorophthalic acid in aqueous phase, 22° C., no acetic acid
[23] = xylene/water, 23 wt.% chlorophthalic acid in aqueous phase, 22° C., no acetic acid
[24] = xylene/water, 35 wt.% chlorophthalic acid in aqueous phase, 22° C., no acetic acid

- K values ([1]; ODCB/water, 5.5 wt.% chlorophthalic acid in aqueous phase, 22° C., no acetic acid): 1.1
- beta values ([1]; ODCB/water, 5.5 wt.% chlorophthalic acid in aqueous phase, 22° C., no acetic acid, chlorophthalides vs chlorophthalic acids): 400
- K values [1, 3]: 2.3
- beta values [1, 3]: 200
- K values [1, 4]: 3.1
- beta values [1, 4]: 600
- K values [1, 5]: 1.8
- beta values [1, 5]: 800
- K values [1, 6]: 2.2
- beta values [1, 6]: 200
- K values [1, 7]: 2.5
- beta values [1, 7]: 300
- K values [1, 8]: 2.8
- beta values [1, 8]: 800
- K values [1, 9]: 2.2
- beta values [1, 9]: 300
- K values [1, 10]: 1.9
- beta values [1, 10]: 100
- K values ([1]; ODCB/water, 29 wt.% acetic acid in initial aqueous phase, 22 wt.% chlorophthalic acid, 60° C.): 2.3
- K values [1, 11]: 1.7
- beta values [1, 11]: 100
- K values [1, 12]: 1.4
- beta values [1, 12]: 260
- K values [1, 13]: 1.7
- beta values [1, 13]: 800
- beta values ([1]; ODCB/water, 37 wt.% acetic acid in initial aqueous phase, 22 wt.% chlorophthalic acid, 60° C.): 100
- values for K ([1]; acetic acid 0-35 wt.% based on the weight of the water, 22 wt.% solids): 1.7-2.6
- selectivity numbers for chlorophthalic acids and chlorophthalide ([1]; o-dichlorobenzene, chlorophthalic acids about 20 wt.%, chlorophthalide about 0.6%): ~500
- selectivity numbers for chlorophthalic acids and chlorophthalide ([1]; toluene and xylene, chlorophthalic acids about 20 wt.%, chlorophthalide about 0.6%): 4000-5000
- values of K ([1]; toluene, xylene and o-dichlorobenzene, chlorophthalic acids about 20 wt.%, chlorophthalide about 0.6%): 1.5-2.5
- K values ([1]; toluene/water, 6 wt.% chlorophthalic acid in aqueous phase, 22° C., no acetic acid): 1.8
- beta values ([1]; toluene/water, 6 wt.% chlorophthalic acid in aqueous phase, 22° C., no acetic acid, chlorophthalides vs chlorophthalic acids): 800
- beta values ([1]; toluene/water, 10 wt.% acetic acid in initial aqueous phase, 22 wt.% chlorophthalic acid, 60° C.): 900
- K values [1, 14]: 2.6
- beta values [1, 14]: 2500
- K values [1, 15]: 2.5
- beta values [1, 15]: 400
- K values ([1]; toluene/water, 19 wt.% acetic acid in initial aqueous phase, 22 wt.% chlorophthalic acid, 60° C.): 2.9
- K values [1, 16]: 3.5
- beta values [1, 16]: 1800
- K values [1, 17]: 2.5
- beta values [1, 17]: 3900
- K values [1, 18]: 2.2
- beta values [1, 18]: 150
- K values ([1]; toluene/water, 29 wt.% acetic acid in initial aqueous phase, 22 wt.% chlorophthalic acid, 60° C.): 2.4
- K values [1, 19]: 1.7
- beta values [1, 19]: 3400
- K values [1, 20]: 2.0
- beta values [1, 20]: 1400
- K values [1, 21]: 1.9
- beta values [1, 21]: 100
- beta values ([1]; toluene/water, 38 wt.% acetic acid in initial aqueous phase, 22 wt.% chlorophthalic acid, 60° C.): 50
- selectivity numbers ([1]; toluene, 0 wt.% acetic acid, 22 wt.% solids): 4000
- selectivity numbers ([1]; toluene, 18 wt.% acetic acid, 22 wt.% solids): about 400
- K values [1, 22]: 2.5
- beta values [1, 22]: 3500
- K values [1, 23]: 1.8
- beta values [1, 23]: 4700
- K values [1, 24]: 1.3
- beta values [1, 24]: 4200
- beta values ([2]; ODCB/water, 29 wt.% acetic acid in initial aqueous phase): 150
- K values ([2]; ODCB/water, 37 wt.% acetic acid in initial aqueous phase): 1.7
- K values ([2]; toluene/water, 10 wt.% acetic acid in initial aqueous phase): 3.3
- beta values ([2]; toluene/water, 19 wt.% acetic acid in initial aqueous phase): 300
- beta values ([2]; toluene/water, 29 wt.% acetic acid in initial aqueous phase): 150
- K values ([2]; toluene/water, 38 wt.% acetic acid in initial aqueous phase): 1.6
Substance: 4- and 7-chlorophthalide [chlorophthalides]
